Where two headings read alike, the source gives them in different places. A value given as a limit tells only on which side of the number the result lay.

One experiment has as its target Human recombinant PARP1 (Homo sapiens, UniProt P09874). Kind of experiment: RBC HotSpot PARP1 assay (radioisotope-based filter binding). Format: biochemical. The method, then: (§1) The following methods are for evaluating the in vitro biology properties of the test articles. • a. RBC HotSpot Poly(ADP-ribose) Polymerases 1 (PARP1) and Poly(ADP-ribose) Polymerases 2 (PARP2) Assays: The assay was conducted at Reaction Biology Corporation (RBC; Malvern, PA). The assay principle is radioisotope-based filter binding assay where incorporation of radioisotope-labeled NAD^+ into the substrate captured on filter is detected after washout free NAD^+. Data were analyzed using Excel and GraphPad Prism software for IC50 curve fits. Each assay was conducted with PJ34 as a positive control. PARP1 assay: Human recombinant PARP1 at a final concentration of 2.5 nM was combined with histone H4 (20 μM) and test articles at various concentrations in reaction buffer (50 mM Tris-HCL, pH 8.0, 50 mM NaCl, 10 mM MgCl2, 1 mM DTT, 1% DMSO, and 20 μg/mL activated DNA). The solution was inoculated for 20 min at room temperature and the reaction initiated by adding [adenylate-^32P]-Nicotinamide Adenine Dinucleotide, ^32P-NAD^+ at a final concentration of 10 μM. After incubation for 2 hrs at room temperature, the reaction mixture was filtered and washed with 0.75% phosphoric acid for radioactivity detection. • ii. PARP2 assay: Human recombinant PARP2 at a final concentration of 2.5 nM was combined with histone H3 (20 μM) and test articles at various concentrations in reaction buffer (50 mM Tris-HCL, pH 8.0, 50 mM NaCl, 10 mM MgCl2, 1 mM DTT, 1% DMSO, and 20 μg/mL activated DNA). The solution was inoculated for 20 min at room temperature and the reaction was initiated by adding [adenylate-^32P]-Nicotinamide Adenine Dinucleotide, ^32P-NAD^+ at a final concentration of 10 μM. After incubation for 2 hrs at room temperature, the reaction mixture was filtered and washed with 0.75% phosphoric acid for radioactivity detection. • b. AR binding assay: AR in LNCaP cytosol was used for determining the binding affinity of test articles and the reference compound—progesterone (Sigma, Cat: E2785, St. Louis, MO). IC50 s were determined using 8 concentrations/compound. Cytosol is plated at 200 μg/well (100 μL) into a 96-well conical polypropylene plate (Agilent, Cat: 5042-1385, Santa Clara, CA) and mixed with 3 μL of test compound. After adding 100 μL of ^3H-methyltrienolone (PerkinElmer, Cat: NET590250UC, San Jose, CA), the plate was sealed and shaken at 300 rpm at 4° C. for 24 hours. Post incubation, 100 μL of radioligand adsorption buffer containing 10 mM Tris-HCl, pH 7.4; 1.5 mM EDTA; 1 mM DTT; 0.25% charcoal; 0.0025% dextran was added to individual wells. Plate was shaken for 15 min at 4° C. followed by centrifugation at 3000 rpm for 30 min at 4° C. 150 μL of supernatant is transferred into scint-tube (PerkinElmer, Cat: 6000192) and mixed with 2 mL of Ultima Gold Cocktail (PerkinElmer, Cat: 6013329). Radioactivity is counted using a TriCarb 2910 TR scintillation counter (PerkinElmer). Inhibition of the radioactivity by test articles was calculated using the equation below: % Inhibition=(1−(Assay well−Average_LC)/(Average_HC−Average_LC))×100%. • IC50 values (Table 6) were calculated and graphed using the model “log(inhibitor) vs. response—Variable slope” included in GraphPad Prism 5 (San Diego, CA). The Ki values were further calculated using the equation below where [L] is the radioligand concentration (1 nM) used in this study. Kd value was 0.332 nM. Ki=IC50/(1+[L]/Kd) • c. AR transactivation: Human AR cloned into a CMV vector backbone is used for the transactivation study. HEK-293 cells are plated at 80,000 cells per well of a 24 well plate in DME+5% csFBS. Twenty four hours later, the cells are transfected using Lipofectamine (Invitrogen, Carlsbad, CA) with 0.25 μg GRE-LUC, 0.01 μg CMV-LUC (renilla luciferase) and 25 ng of the AR in OPTIMEM medium. The cells are treated 24 hrs after transfection with various ligands (10^−12 to 10^−5 M final concentrations) and luciferase assay performed 48 hours after transfection. […]

The target of a further experiment is Human recombinant PARP2 (Homo sapiens, UniProt Q9UGN5). Kind of experiment: RBC HotSpot PARP2 assay (radioisotope-based filter binding). The class given is biochemical. The method, then: as §1
Another experiment deals with LNCap cells. Kind of experiment: Cell viability assay (CellTiterGlo, 6 days) LNCap. Format: cell-based. The note with it: Homo sapiens, 144 h. As to the method: (§2) Cell viability assay: LNCap, 22Rv1, and T47D cells were seeded at a density of 1500-2000 cells/well in 96 well plates, and a ‘T0’ (timepoint 0) was included along with the assay plate. The plates were then incubated at 37° C., 5% CO2 in a cell culture incubator overnight. On the next day, the ‘T0’ plate was assayed using CellTiterGlo (Promega, Inc) according to the manufacturer's instructions. The appropriate compounds were diluted in DMSO and added to the assay plate (final DMSO concentration of 0.2%) on the next day. The assay plates were incubated for 6 days at 37° C., 5% CO2. After the incubation period, the plates were assayed using CellTiterGlo (Promega, Inc) according to the manufacturer's instructions and luminescence was read on the EnVision plate reader. Inhibition the tested compounds was determined by the following formula: Inhibition rate (%)=(1−(RLU compound−RLU day0)/(RLU control−RLU day0))*100%. GraphPadPrism was used to analyze the data and determine absolute IC50 values.

For a further experiment, the system named is 22Rv1 cells. Put plainly: Cell viability assay (CellTiterGlo, 6 days) 22Rv1. The note with it: Homo sapiens, 22Rv1, 144 h, read-out: 22RV1. Format: cell-based. The method, then:
as §2

Human recombinant PARP1, sequence (P09874 whole entry): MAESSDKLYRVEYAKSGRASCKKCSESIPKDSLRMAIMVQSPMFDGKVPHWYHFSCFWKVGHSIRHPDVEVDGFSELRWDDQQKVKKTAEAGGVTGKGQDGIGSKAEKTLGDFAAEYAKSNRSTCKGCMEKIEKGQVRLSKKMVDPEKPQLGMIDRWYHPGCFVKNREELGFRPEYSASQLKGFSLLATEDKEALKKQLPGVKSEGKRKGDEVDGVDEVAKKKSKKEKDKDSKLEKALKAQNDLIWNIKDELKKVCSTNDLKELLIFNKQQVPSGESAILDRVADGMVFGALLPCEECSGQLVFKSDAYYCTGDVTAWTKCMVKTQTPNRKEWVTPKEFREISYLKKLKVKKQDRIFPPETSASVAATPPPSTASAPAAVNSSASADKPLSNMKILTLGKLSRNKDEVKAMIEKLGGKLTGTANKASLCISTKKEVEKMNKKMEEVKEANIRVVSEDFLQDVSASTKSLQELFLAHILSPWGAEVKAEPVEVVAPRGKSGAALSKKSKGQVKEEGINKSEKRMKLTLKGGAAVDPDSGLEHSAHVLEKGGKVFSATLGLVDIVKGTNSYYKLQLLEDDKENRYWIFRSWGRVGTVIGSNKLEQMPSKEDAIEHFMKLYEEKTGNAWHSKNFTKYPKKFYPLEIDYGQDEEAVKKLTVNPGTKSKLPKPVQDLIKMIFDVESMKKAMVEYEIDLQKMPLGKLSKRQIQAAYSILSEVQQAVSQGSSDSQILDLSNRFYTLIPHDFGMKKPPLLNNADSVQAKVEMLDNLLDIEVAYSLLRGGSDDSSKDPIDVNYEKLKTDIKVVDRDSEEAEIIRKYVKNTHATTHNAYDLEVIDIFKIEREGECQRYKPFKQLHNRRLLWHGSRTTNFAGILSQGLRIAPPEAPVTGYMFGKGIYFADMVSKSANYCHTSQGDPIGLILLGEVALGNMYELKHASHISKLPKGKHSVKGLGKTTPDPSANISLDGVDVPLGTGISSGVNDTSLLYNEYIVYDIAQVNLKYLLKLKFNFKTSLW
Human recombinant PARP2, sequence (Q9UGN5 whole entry): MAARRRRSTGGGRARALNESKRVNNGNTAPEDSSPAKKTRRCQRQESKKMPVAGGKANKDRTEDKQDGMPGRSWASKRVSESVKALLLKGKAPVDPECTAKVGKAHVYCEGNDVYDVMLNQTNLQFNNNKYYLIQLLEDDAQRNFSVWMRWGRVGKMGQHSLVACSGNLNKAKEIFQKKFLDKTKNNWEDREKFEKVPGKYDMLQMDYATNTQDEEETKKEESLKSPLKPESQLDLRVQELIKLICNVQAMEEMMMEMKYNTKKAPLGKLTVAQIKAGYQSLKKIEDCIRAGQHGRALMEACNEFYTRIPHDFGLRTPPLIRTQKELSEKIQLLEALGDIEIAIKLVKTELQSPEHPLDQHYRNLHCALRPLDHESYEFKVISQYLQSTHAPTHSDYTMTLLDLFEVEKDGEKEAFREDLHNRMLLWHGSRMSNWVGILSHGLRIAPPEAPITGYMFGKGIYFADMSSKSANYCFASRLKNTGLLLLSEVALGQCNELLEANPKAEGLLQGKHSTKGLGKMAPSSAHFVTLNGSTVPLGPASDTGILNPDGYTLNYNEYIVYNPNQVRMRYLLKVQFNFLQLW

In the case of `C[C@]12C[C@H](CCCCCC(=O)N3CCN(C(=O)c4cc(Cc5n[nH]c(=O)c6ccccc56)ccc4F)CC3)C3=C4CCC(=O)C=C4CC[C@H]3[C@@H]1CCC2=O` [Compound 1370, (8S,11S,13S,14S)-11-(6-(4-(2-fluoro-5-((4-oxo-3,4-dihydrophthalazin-1-yl)methyl)benzoyl)piperazin-1-yl)-6-oxohexyl)-13-methyl-7,8,11,12,13,14,15,16-octahydro-1H-cyclopenta[a]phenanthrene-3,17(2H,6H)-dione], the IC50 is < 1 nM at Human recombinant PARP1, < 1 nM at Human recombinant PARP2, 100 to 1000 nM with LNCap cells (Table 7) and 100 to 1000 nM in the experiment on 22Rv1 cells.

As for `C[C@@H]1C[C@@]2(C)[C@@H](CC[C@@H]3[C@@H]2CC[C@]2(C)[C@@H](OCCCCCC(=O)N4CCN(C(=O)c5cc(Cc6n[nH]c(=O)c7ccccc67)ccc5F)CC4)CC[C@@H]32)CC1=O` [Compound 1402, 4-(4-fluoro-3-(4-(6-((2R,5S,8R,9S,10S,13S,14S,17S)-2,10,13-trimethyl-3-oxohexadecahydro-1H-cyclopenta[a]phenanthren-17-yloxy)hexanoyl)piperazine-1-carbonyl)benzyl)phthalazin-1(2H)-one], the IC50 lay within 10 to 100 nM at Human recombinant PARP1 (Table 9, read-out: PARP1) and 1 to 10 nM on Human recombinant PARP2 (Table 9, read-out: PARP2).

For the molecule `C[C@]12CC[C@H]3[C@@H](CCC4=CC(=O)CC[C@@]43C)[C@@H]1CC[C@@H]2C(=O)COCCCCCC(=O)NCCOCCOCC(=O)N1CCN(C(=O)c2cc(Cc3n[nH]c(=O)c4ccccc34)ccc2F)CC1` [Compound 1392], the IC50 at Human recombinant PARP1 (Table 9, read-out: PARP1) was 1 to 10 nM; on Human recombinant PARP2 (Table 9, read-out: PARP2), < 1 nM; in the experiment on LNCap cells (Table 8) it was 1000 to 10000 nM.

For the origin of these results see patent US11952349B2, “Anti-cancer nuclear hormone receptor-targeting compounds” (Nuvation Bio Inc., priority 2019, dated 2024).
